Source: patent US11752139B2, “Therapeutic combinations of orally administered irinotecan and a p-gp inhibitor for the treatment of cancer” (priority 2018, dated 2023)
Values joined by “and” are separate entries in the source; they are usually repeats but may differ in a detail not shown here. Equal values may be shown once. Read-outs that look alike come from different tables or passages of the source.

Assays:
[1] = Study 2: pharmacokinetics of oral irinotecan and M1, 5-20 mg/m^2 per day for 10 days during a 21 day cycle; conditions: for AUC24 / Cmax: mean
[2] = Study 1: pharmacokinetics of oral irinotecan and M1, 5-30 mg/m^2 per day for five days during a 21 day cycle; conditions: for AUC24 / Cmax: mean
[3] = Simple Emax model of exposure (AUCinf, Cmax) versus dose
[4] = for AUC24 h / Cmax / Tmax: N = 3
Protocol: A phase 1 dose escalation study was performed to determine the MTD and DLT of orally administered irinotecan in combination with 15 mg (on day 1 of a 21-day cycle) of HM30181A. The study was performed on cohorts of 3-6 subjects with advanced malignancies. Subjects had Hb (hemoglobin count) 9 gm/dL, ANC (absolute neutrophil count) 1.5×10^9/L, and platelets 100×10^9/L, as well as adequate hepatic and renal function, and ECOG (Eastern Cooperative Oncology Group Performance Status) 0-1, and were not homozygous for UGT1A1*28.

[5] = IV dose of 340 mg/m^2; reference line of FIG. 5A; cited from earlier work
[6] = Tablet, dose 120 (mg), Mean (CV %), N 3, plasma
[7] = Tablet, dose 160 (mg), Mean (CV %), N 3, plasma
[8] = Tablet, dose 200 (mg), Mean (CV %), N 3, plasma
[9] = Tablet, dose 240 (mg), Mean (CV %), N 3, plasma
[10] = Tablet, dose 280 (mg), Mean (CV %), N 3, plasma
[11] = Tablet, dose 320 (mg), Mean (CV %), N 3, plasma
[12] = single oral dose 240 mg/m^2, individual subjects 1-3, plasma
[13] = single oral dose 280 mg/m^2, individual subjects 4-6, plasma
[14] = single oral dose 320 mg/m^2, individual subjects 7-9, plasma
[15] = dose 240 mg/m^2 oral irinotecan + 15 mg HM30181A
[16] = dose 280 mg/m^2 oral irinotecan + 15 mg HM30181A
[17] = dose 320 mg/m^2 oral irinotecan + 15 mg HM30181A

## CCc1c2c(nc3ccc(O)cc13)-c1cc3c(c(=O)n1C2)COC(=O)[C@]3(O)CC [Compound M1]
[1]; 5-20 mg/m^2 per day for 10 days during a 21 day cycle
  pharmacokinetics versus dose: increased proportionally with dose
[1]; Day 1, dose group 5 mg/m^2
  AUC24: 41.40 ng·h/mL
  Cmax: 7.08 ng/mL
[1]; Day 1, dose group 10 mg/m^2
  AUC24: 43.34 ng·h/mL
  Cmax: 5.04 ng/mL
[1]; Day 1, dose group 15 mg/m^2
  AUC24: 85.61 ng·h/mL
  Cmax: 10.19 ng/mL
[1]; Day 1, dose group 20 mg/m^2
  AUC24: 54.44 ng·h/mL
  Cmax: 4.15 ng/mL
[1]; Day 12, dose group 5 mg/m^2
  AUC24: 42.53 ng·h/mL
  Cmax: 6.10 ng/mL
[1]; Day 12, dose group 10 mg/m^2
  AUC24: 38.17 ng·h/mL
  Cmax: 4.04 ng/mL
[1]; Day 12, dose group 15 mg/m^2
  AUC24: 144.14 ng·h/mL
  Cmax: 18.00 ng/mL
[1]; Day 12, dose group 20 mg/m^2
  AUC24: 71.97 ng·h/mL
  Cmax: 7.63 ng/mL
[2]; 5-30 mg/m^2 per day for five days during a 21 day cycle
  pharmacokinetics versus dose: increased proportionally with dose
[2]; Day 1, dose group 5 mg/m^2
  AUC24: 49.83 ng·h/mL
  Cmax: 6.07 ng/mL
[2]; Day 1, dose group 10 mg/m^2
  AUC24: 46.04 ng·h/mL
  Cmax: 7.84 ng/mL
[2]; Day 1, dose group 15 mg/m^2
  AUC24: 50.29 ng·h/mL
  Cmax: 5.33 ng/mL
[2]; Day 1, dose group 20 mg/m^2
  AUC24: 63.56 ng·h/mL
  Cmax: 8.92 ng/mL
[2]; Day 1, dose group 25 mg/m^2
  AUC24: 143.97 ng·h/mL
  Cmax: 17.10 ng/mL
[2]; Day 1, dose group 30 mg/m^2
  AUC24: 83.64 ng·h/mL
  Cmax: 7.31 ng/mL
[2]; Day 5, dose group 5 mg/m^2
  AUC24: 68.61 ng·h/mL
  Cmax: 5.84 ng/mL
[2]; Day 5, dose group 10 mg/m^2
  AUC24: 51.40 ng·h/mL
  Cmax: 6.15 ng/mL
[2]; Day 5, dose group 15 mg/m^2
  AUC24: 118.29 ng·h/mL
  Cmax: 11.14 ng/mL
[2]; Day 5, dose group 20 mg/m^2
  AUC24: 119.38 ng·h/mL
  Cmax: 11.73 ng/mL
[2]; Day 5, dose group 25 mg/m^2
  AUC24: 178.58 ng·h/mL
  Cmax: 14.93 ng/mL
[2]; Day 5, dose group 30 mg/m^2
  AUC24: 308.27 ng·h/mL
  Cmax: 13.44 ng/mL
[3]; dose 200 mg/m^2
  Predicted AUCinf: 423
  Predicted Cmax: 29.2
[3]; dose 240 mg/m^2
  Predicted AUCinf: 464
  Predicted Cmax: 31.9
[3]; dose 280 mg/m^2
  Predicted AUCinf: 499
  Predicted Cmax: 34.1
[3]; dose 320 mg/m^2
  Predicted AUCinf: 528
  Predicted Cmax: 38.8
Tablet, dose 120 (mg), Mean (CV %), N 2, plasma
  AUC0-inf: 274 (18.3) ng*hr/mL
[6]
  AUC0-24: 168 (32.9) ng*hr/mL
  Cmax: 23.1 (58.4) ng/mL
  Tlast: 56.0 h
Tablet, dose 120 (mg), N 3, plasma
  Tmax*: 3.00 h
[7]
  AUC0-24: 156 (22.6) ng*hr/mL
  AUC0-inf: 235 (13.4) ng*hr/mL
  Cmax: 25.0 (58.1) ng/mL
  Tlast: 48.0 (21.7) hr
Tablet, dose 160 (mg), N 3, plasma
  Tmax*: 3.00 h
[8]
  AUC0-24: 185 (66.3) ng*hr/mL
  AUC0-inf: 468 (90.0) ng*hr/mL
  Cmax: 23.0 (102) ng/mL
  Tlast: 88.0 (83.3) hr
Tablet, dose 200 (mg), N 3, plasma
  Tmax*: 3.00 h
[9]
  AUC0-24: 264 (66.4) ng*hr/mL
  Cmax: 28.3 (67.3) ng/mL
  Tlast: 96.0 (66.1) hr
Tablet, dose 240 (mg), N 1, plasma
  AUC0-inf: 224 ng·h/mL
Tablet, dose 240 (mg), N 3, plasma
  Tmax*: 3.00 h
[10]
  AUC0-24: 293 (60.0) ng*hr/mL
  AUC0-inf: 468 (67.3) ng*hr/mL
  Cmax: 37.6 (42.4) ng/mL
  Tlast: 72.0 (0) hr
Tablet, dose 280 (mg), N 3, plasma
  Tmax*: 1.5 h
[11]
  AUC0-24: 300 (42.3) ng*hr/mL
  Cmax: 38.5 (58.7) ng/mL
  Tlast: 72.0 (0) hr
Tablet, dose 320 (mg), N 1, plasma
  AUC0-inf: 349 ng·h/mL
Tablet, dose 320 (mg), N 3, plasma
  Tmax*: 2.00 h
Dose 200 mg/m^2
  Observed Mean (Cmax): 23 ng/mL
  Observed Mean AUCinf: 468 ng·h/mL
Dose 240 mg/m^2
  Observed Mean (Cmax): 28.3 ng/mL
  Observed Mean AUCinf: 224 ng·h/mL
Dose 280 mg/m^2
  Observed Mean (Cmax): 37.6 ng/mL
  Observed Mean AUCinf: 468 ng·h/mL
Dose 320 mg/m^2
  Observed Mean (Cmax): 38.7 ng/mL
  Observed Mean AUCinf: 349 ng·h/mL
Dose level of 200 mg/m^2 and above
  subjects with M1 exposures (AUC24) comparable between oral irinotecan and IV irinotecan: 4 of 9
Oral solution administration
  M1 Cmax compared with IV irinotecan: within the range of 125 mg/m^2 dosed IV irinotecan
plasma
  early enterohepatic recycling (EHR) in plasma concentration profile, time: 5.5 h
  possible enterohepatic recycling (EHR) in plasma concentration profile, time: 50 h
[12]
  AUC24: 133 ng·h/mL and 463 ng·h/mL and 195 ng·h/mL
  AUCinf: 224 ng·h/mL
  AUClast: 185 ng·h/mL and 636 ng·h/mL and 376 ng·h/mL
  Cmax: 17.1 ng/mL and 50.3 ng/mL and 17.5 ng/mL
  Tlast: 48 h and 168 h and 72 h
  Tmax: 3 h
[13]
  AUC24: 497 ng·h/mL and 190 ng·h/mL and 194 ng·h/mL
  AUCinf: 831 ng·h/mL and 273 ng·h/mL and 300 ng·h/mL
  AUClast: 783 ng·h/mL and 256 ng·h/mL and 282 ng·h/mL
  Cmax: 55.4 ng/mL and 33.0 ng/mL and 24.5 ng/mL
  Tlast: 72 h
  Tmax: 1 h and 1.5 h and 3 h
[14]
  AUC24: 212 ng·h/mL and 445 ng·h/mL and 242 ng·h/mL
  AUCinf: 349 ng·h/mL
  AUClast: 322 ng·h/mL and 713 ng·h/mL and 410 ng·h/mL
  Cmax: 28.1 ng/mL and 64.8 ng/mL and 23.2 ng/mL
  Tlast: 72 h
  Tmax: 1.5 h and 2 h and 3 h
Tablet formulation, FIG. 5B
  M1 Cmax compared with IV irinotecan: in a range of that observed with IV irinotecan dosage of 340 mg/m^2
[4]; [15]
  AUC24 h: 264 ng·h/mL
  Cmax: 28.3 ng/mL
  Tmax: 3.0 h
[4]; [16]
  AUC24 h: 293 ng·h/mL
  Cmax: 37.6 ng/mL
[4]; [17]
  AUC24 h: 300 ng·h/mL
  Cmax: 38.5 ng/mL
  Tmax: 2.0 h
[4]; oral administration of HM30181A in combination with irinotecan tablets
  concentrations of SN-38 reached: pharmacologically active concentrations

## CCc1c2c(nc3ccc(OC(=O)N4CCC(N5CCCCC5)CC4)cc13)-c1cc3c(c(=O)n1C2)COC(=O)[C@]3(O)CC [IV dosed irinotecan]
[5]
  Cmax: 3392 ng/mL
